BindingDB's records for doi:10.1021/jm701270n (National Taiwan University, 2008)
pKi: −log10 of the molar value.

Biological target: Sodium-dependent dopamine transporter (Rattus norvegicus, UniProt P23977)
Experiment: Radioligand Binding Assay
Procedure: The assay was initiated by the addition of membranes to binding buffer containing test compound, blocker, and radioligand. The samples were incubated in triplicate. Brandel cell harvesters were used to filter the samples over Whatman GF/B filters, which were presoaked in wash buffer. The 125I retained on the filters was measured in a gamma counter.

Chain of Sodium-dependent dopamine transporter (P23977 whole entry): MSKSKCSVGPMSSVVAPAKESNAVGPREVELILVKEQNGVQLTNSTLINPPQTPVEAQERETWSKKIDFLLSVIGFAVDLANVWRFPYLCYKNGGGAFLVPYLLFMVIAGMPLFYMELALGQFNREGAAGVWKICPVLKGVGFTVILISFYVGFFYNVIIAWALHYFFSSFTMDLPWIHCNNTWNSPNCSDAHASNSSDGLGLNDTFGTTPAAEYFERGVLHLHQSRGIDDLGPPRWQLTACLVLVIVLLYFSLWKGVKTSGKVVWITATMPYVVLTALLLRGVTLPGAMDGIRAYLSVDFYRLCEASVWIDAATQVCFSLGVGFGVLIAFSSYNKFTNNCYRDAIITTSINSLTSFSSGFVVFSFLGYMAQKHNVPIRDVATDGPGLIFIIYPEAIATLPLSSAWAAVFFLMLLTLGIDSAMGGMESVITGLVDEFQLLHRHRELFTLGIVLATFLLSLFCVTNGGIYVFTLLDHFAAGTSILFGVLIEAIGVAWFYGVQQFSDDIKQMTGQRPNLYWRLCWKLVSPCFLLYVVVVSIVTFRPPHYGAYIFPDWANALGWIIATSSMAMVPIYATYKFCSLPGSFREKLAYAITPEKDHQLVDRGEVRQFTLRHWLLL

`CO[C@@H](Cc1ccccc1)CN1CCN(CCOC(c2ccc(F)cc2)c2ccc(F)cc2)CC1` [1-{2-[bis(4-fluorophenyl)methoxy]ethyl}-4-[(2S)-2-methoxy-3-phenylpropyl]piperazine] gave a pKi (pH 7.4, 4 °C) of 7.54.
Compound `O=C(Cc1ccccc1)CN1CCN(CCOC(c2ccc(F)cc2)c2ccc(F)cc2)CC1` [1-(4-{2-[bis(4-fluorophenyl)methoxy]ethyl}piperazin-1-yl)-3-phenylpropan-2-one] has a pKi of 8.19.
For `N[C@@H](Cc1ccccc1)CN1CCN(CCOC(c2ccc(F)cc2)c2ccc(F)cc2)CC1` [(2S)-1-(4-{2-[bis(4-fluorophenyl)methoxy]ethyl}piperazin-1-yl)-3-phenylpropan-2-amine], the pKi (pH 7.4, 4 °C) was 7.41.
`O=C(Cc1ccccc1)CN1CCN(CCOC(c2ccccc2)c2ccccc2)CC1` [1-{4-[2-(diphenylmethoxy)ethyl]piperazin-1-yl}-3-phenylpropan-2-one] showed a pKi of 8.00.
With `Fc1ccc(C(OCCN2CCN(C[C@@H](F)Cc3ccccc3)CC2)c2ccc(F)cc2)cc1` [1-{2-[bis(4-fluorophenyl)methoxy]ethyl}-4-[(2S)-2-fluoro-3-phenylpropyl]piperazine] the pKi (pH 7.4, 4 °C) was 8.57.
`FC[C@H](Cc1ccccc1)N1CCN(CCOC(c2ccc(F)cc2)c2ccc(F)cc2)CC1` [1-{2-[bis(4-fluorophenyl)methoxy]ethyl}-4-[(2S)-1-fluoro-3-phenylpropan-2-yl]piperazine] showed a pKi of 6.85.
Compound `C=C(CCN1CCN(CCOC(c2ccc(F)cc2)c2ccc(F)cc2)CC1)c1ccccc1` [1-{2-[bis(4-fluorophenyl)methoxy]ethyl}-4-(3-phenylbut-3-en-1-yl)piperazine] has a pKi (pH 7.4, 4 °C) of 7.74.
Work on `CC(O)(Cc1ccccc1)CN1CCN(CCOC(c2ccccc2)c2ccccc2)CC1` (configuration not stated) [1-{4-[2-(diphenylmethoxy)ethyl]piperazin-1-yl}-2-methyl-3-phenylpropan-2-ol] yielded a pKi of 6.82.
`N[C@H](Cc1ccccc1)CN1CCN(CCOC(c2ccc(F)cc2)c2ccc(F)cc2)CC1` [(2R)-1-(4-{2-[bis(4-fluorophenyl)methoxy]ethyl}piperazin-1-yl)-3-phenylpropan-2-amine] was tested, and the pKi (pH 7.4, 4 °C) was 7.70.
With `C[C@@H](Cc1ccccc1)CN1CCN(CCOC(c2ccc(F)cc2)c2ccc(F)cc2)CC1` [1-[(2S)-2-benzylpropyl]-4-{2-[bis(4-fluorophenyl)methoxy]ethyl}piperazine] the pKi (pH 7.4, 4 °C) was 7.77.
`O=C(CN1CCN(CCOC(c2ccc(F)cc2)c2ccc(F)cc2)CC1)c1ccccc1` [2-(4-{2-[bis(4-fluorophenyl)methoxy]ethyl}piperazin-1-yl)-1-phenylethan-1-one] gave a pKi of 7.27.
`CO[C@H](Cc1ccccc1)CN1CCN(CCOC(c2ccc(F)cc2)c2ccc(F)cc2)CC1` [1-{2-[bis(4-fluorophenyl)methoxy]ethyl}-4-[(2R)-2-methoxy-3-phenylpropyl]piperazine] was tested, and the pKi (pH 7.4, 4 °C) was 7.57.
For `FC[C@@H](Cc1ccccc1)N1CCN(CCOC(c2ccc(F)cc2)c2ccc(F)cc2)CC1` [1-{2-[bis(4-fluorophenyl)methoxy]ethyl}-4-[(2R)-1-fluoro-3-phenylpropan-2-yl]piperazine], the pKi was 6.96.
For `C=C(Cc1ccccc1)CN1CCN(CCOC(c2ccccc2)c2ccccc2)CC1` [1-(2-benzylprop-2-en-1-yl)-4-[2-(diphenylmethoxy)ethyl]piperazine], the pKi was 6.39.
`C=C(CCN1CCN(CCOC(c2ccccc2)c2ccccc2)CC1)c1ccccc1` [1-[2-(diphenylmethoxy)ethyl]-4-(3-phenylbut-3-en-1-yl)piperazine] gave a pKi (pH 7.4, 4 °C) of 7.52.
`CC(O)(CCN1CCN(CCOC(c2ccccc2)c2ccccc2)CC1)c1ccccc1` (configuration not stated) [4-{4-[2-(diphenylmethoxy)ethyl]piperazin-1-yl}-2-phenylbutan-2-ol] was tested, and the pKi (pH 7.4, 4 °C) was 8.15.
Work on `C=C(Cc1ccccc1)CN1CCN(CCOC(c2ccc(F)cc2)c2ccc(F)cc2)CC1` [1-(2-benzylprop-2-en-1-yl)-4-{2-[bis(4-fluorophenyl)methoxy]ethyl}piperazine] yielded a pKi of 7.00.
Work on `O=C(CN1CCN(CCOC(c2ccccc2)c2ccccc2)CC1)c1ccccc1` [2-{4-[2-(diphenylmethoxy)ethyl]piperazin-1-yl}-1-phenylethan-1-one] yielded a pKi of 6.35.
In the case of `CC(O)(CCN1CCN(CCOC(c2ccc(F)cc2)c2ccc(F)cc2)CC1)c1ccccc1` (configuration not stated) [4-(4-{2-[bis(4-fluorophenyl)methoxy]ethyl}piperazin-1-yl)-2-phenylbutan-2-ol], the pKi (pH 7.4, 4 °C) was 8.40.
With `Fc1ccc(C(OCCN2CCN(C[C@H](F)Cc3ccccc3)CC2)c2ccc(F)cc2)cc1` [1-{2-[bis(4-fluorophenyl)methoxy]ethyl}-4-[(2R)-2-fluoro-3-phenylpropyl]piperazine] the pKi (pH 7.4, 4 °C) was 7.66.
`CC(O)(Cc1ccccc1)CN1CCN(CCOC(c2ccc(F)cc2)c2ccc(F)cc2)CC1` (configuration not stated) [1-(4-{2-[bis(4-fluorophenyl)methoxy]ethyl}piperazin-1-yl)-2-methyl-3-phenylpropan-2-ol] was tested, and the pKi was 7.24.
In the case of `C[C@H](Cc1ccccc1)CN1CCN(CCOC(c2ccc(F)cc2)c2ccc(F)cc2)CC1` [1-[(2R)-2-benzylpropyl]-4-{2-[bis(4-fluorophenyl)methoxy]ethyl}piperazine], the pKi (pH 7.4, 4 °C) was 7.77.
